From article PMC6222853 (Molecules : A Journal of Synthetic Chemistry and Natural …, 2018)

Key:
[1] = biological target: T1, yeast α-glucosidase (Saccharomyces cerevisiae, UniProt P53341); assay: α-Glucosidase inhibition assay; type: biochemical
T1 construct: purchased Sigma-Aldrich (Saint Louis, MO, USA)
Procedure: The α-glucosidase assay was performed with slight modifications of a previous method. In short, 15 µL of the test sample at various concentrations was added to 140 µL of enzyme solution (0.0073 U/mL of α-glucosidase in 0.05 M sodium phosphate buffer containing 100 mM NaCl) in a 96-well plate. Reaction mixtures were incubated at 37 °C for 15 min. Then, 25 µL of 0.7 mM p-nitrophenyl-α-D-glucopyranoside (PNPG) solution in 0.05 M sodium phosphate buffer (pH 6.8) was added to each well.

[2] = biological target: T2, COX-2 (Mus musculus, UniProt Q05769); assay: Cell-based assay for COX-2 inhibition (PGE2 ELISA); conditions: LPS-induced RAW 264.7 cells, conversion of arachidonic acid to PGE2
T2 construct: treated with 500 ng/mL LPS for the next 24 h to induce the production of COX-2; endogenous in cells; host or cells: RAW 264.7 cells, LPS-induced
T2 sequence (Q05769 18-604): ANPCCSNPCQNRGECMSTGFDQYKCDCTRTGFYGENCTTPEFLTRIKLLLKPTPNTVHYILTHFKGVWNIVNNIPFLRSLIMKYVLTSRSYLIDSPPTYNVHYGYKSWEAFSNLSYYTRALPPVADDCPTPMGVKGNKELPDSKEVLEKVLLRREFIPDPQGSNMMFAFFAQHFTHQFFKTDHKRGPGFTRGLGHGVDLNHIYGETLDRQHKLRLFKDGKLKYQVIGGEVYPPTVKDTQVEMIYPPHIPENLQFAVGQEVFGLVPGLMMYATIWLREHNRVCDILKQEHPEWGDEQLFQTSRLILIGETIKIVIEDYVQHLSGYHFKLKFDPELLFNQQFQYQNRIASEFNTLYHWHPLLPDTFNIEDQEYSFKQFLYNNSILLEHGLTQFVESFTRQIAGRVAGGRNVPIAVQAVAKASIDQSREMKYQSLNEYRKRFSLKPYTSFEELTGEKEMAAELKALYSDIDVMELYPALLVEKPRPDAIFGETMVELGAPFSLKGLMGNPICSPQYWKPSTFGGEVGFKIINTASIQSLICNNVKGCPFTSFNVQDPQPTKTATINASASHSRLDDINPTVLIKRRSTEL
Procedure: This assay was carried out according to the method described by Stanikunaite et al. with some modifications. In brief, RAW 264.7 cells (2 × 10^5 cells/well) were cultured in a 24-well plate in DMEM supplemented with 10% FBS and incubated at 37 °C for 24 h for seeding. After seeding, cells were washed with PBS (400 µL) and treated with 500 ng/mL LPS for the next 24 h to induce the production of COX-2. Then, the induced cells were washed thoroughly with PBS to remove LPS completely and treated with different concentrations of test compounds for 4 h. Arachidonic acid (300 µM) was added and the cells were further incubated for 30 min. Next, the PGE2 levels were determined in the culture supernatant using a PGE2 ELISA kit (Cayman Chemical Co., Ann Arbor, MI, USA) according to the manufacturer’s instructions. COX-2 enzyme activity was determined by the conversion of exogenous arachidonic acid to PGE2, and was expressed as the percentage of negative control (without test compounds). Finally, IC50 values were calculated for all the tested compounds. Indomethacin was used as a positive control.

[3] = biological target: T3, egg albumin (Gallus gallus, UniProt P01012); assay: Albumin denaturation inhibition assay; parameters: species or system chicken; conditions: for IC50: egg albumin, heated at 70 °C, in vitro
T3 sequence (P01012 1-386): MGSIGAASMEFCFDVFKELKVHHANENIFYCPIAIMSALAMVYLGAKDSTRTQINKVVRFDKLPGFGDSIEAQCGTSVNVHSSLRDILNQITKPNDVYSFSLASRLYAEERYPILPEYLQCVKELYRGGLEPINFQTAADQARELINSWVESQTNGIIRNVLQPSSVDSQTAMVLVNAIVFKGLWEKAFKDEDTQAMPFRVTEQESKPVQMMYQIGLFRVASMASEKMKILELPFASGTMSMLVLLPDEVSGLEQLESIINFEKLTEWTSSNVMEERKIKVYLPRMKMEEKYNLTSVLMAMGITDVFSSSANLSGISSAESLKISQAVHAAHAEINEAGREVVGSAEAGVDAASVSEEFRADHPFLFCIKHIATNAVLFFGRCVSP
Procedure: Albumin denaturation inhibition effects of the compounds were confirmed through a previously described method. Egg albumin was used in this experiment, and the reaction mixture contained 0.1 mL of egg albumin, 0.7 mL of phosphate-buffered saline (PBS), and varying concentrations of different compounds (0.5 mL). Mili-Q water (0.5 mL) instead of the compounds was used in the negative control. The reaction mixtures were incubated at 37 °C for 15 min and heated at 70 °C for 5 min. The absorbance was measured at 660 nm after cooling at room temperature. Ketorolac was used as a standard drug. Percentage of albumin denaturation inhibition was calculated according to the following formula:Percentage of inhibition = (1 − (A/B)) × 100, where A is the absorbance of the test sample, and B is the absorbance of the negative control.

[4] = system: LPS-stimulated RAW 264.7 cells; assay: Nitrite inhibition assay in LPS-stimulated cells; type: cell-based; conditions: Mus musculus; for IC50: RAW264.7, 24 h, read-out: Nitrite Inhibition (IC50 Value)
Procedure: As an indicator of NO synthesis, nitrite amount was measured in the supernatant of LPS-stimulated RAW 264.7 cells. Cells were plated on a 24-well plate with a density of 2 × 10^5 cells/well. After seeding, cells were treated with LPS (500 ng/mL final concentration) and varying concentrations of the test compounds for 24 h. Ketorolac (200 μM) was used as a standard drug. Then, 100 μL of culture supernatant from each well was mixed with an equal volume of Griess reagent, and incubated at room temperature for 10 min. The formation of an azo compound was measured spectrophotometrically at 550 nm wavelength. Finally, nitrite concentration was determined from a standard curve of sodium nitrite, and nitrite inhibition percentages of test compounds and the reference drug were calculated based on the amount of nitrite produced by the control cells (treated only with LPS).

[5] = biological target: T4, electric eel AChE (Electrophorus electricus, UniProt O42275); assay: biochemical; conditions: in vitro, electric eel enzyme; read-out: AChE inhibition IC50
T4 construct: purchased Sigma-Aldrich (Saint Louis, MO, USA)
Procedure: The AChE inhibitory properties of the compounds were determined using a 96-well microplate colorimetric method as described by Ellman et al.. Donepezil was used as a positive control.

[6] = system: RAW 264.7 cells; assay: cells; type: cell-based; conditions: Mus musculus, RAW264.7, 24 h, read-out: Inhibition of cell proliferation, deviation from the control group
Procedure: RAW 264.7 cell viability was evaluated through the MTT assay. Cells were seeded in a 24-well plate at a density of 2 × 10^5 cells/well and incubated with the OP compounds for 24 h. Ketroloac (200 μM) was also assessed to determine its cytotoxicity on RAW 264.7 cells. After incubation, the supernatant was removed, and the cells were washed with PBS. Aliquots of 100 μL of MTT solution (0.5 mg/mL in PBS) were added to each well, and the plate was incubated at 37 °C for 3 h. Afterwards, dimethyl sulfoxide (400 μL) was added to each well, and the plate was shaken for 10 min at room temperature to dissolve the formazan crystals. The absorbance was measured at 570 nm wavelength using a microplate reader, and the cell viability was calculated from the absorbance of the treated versus untreated control cells.

T4 sequence (O42275 24-633): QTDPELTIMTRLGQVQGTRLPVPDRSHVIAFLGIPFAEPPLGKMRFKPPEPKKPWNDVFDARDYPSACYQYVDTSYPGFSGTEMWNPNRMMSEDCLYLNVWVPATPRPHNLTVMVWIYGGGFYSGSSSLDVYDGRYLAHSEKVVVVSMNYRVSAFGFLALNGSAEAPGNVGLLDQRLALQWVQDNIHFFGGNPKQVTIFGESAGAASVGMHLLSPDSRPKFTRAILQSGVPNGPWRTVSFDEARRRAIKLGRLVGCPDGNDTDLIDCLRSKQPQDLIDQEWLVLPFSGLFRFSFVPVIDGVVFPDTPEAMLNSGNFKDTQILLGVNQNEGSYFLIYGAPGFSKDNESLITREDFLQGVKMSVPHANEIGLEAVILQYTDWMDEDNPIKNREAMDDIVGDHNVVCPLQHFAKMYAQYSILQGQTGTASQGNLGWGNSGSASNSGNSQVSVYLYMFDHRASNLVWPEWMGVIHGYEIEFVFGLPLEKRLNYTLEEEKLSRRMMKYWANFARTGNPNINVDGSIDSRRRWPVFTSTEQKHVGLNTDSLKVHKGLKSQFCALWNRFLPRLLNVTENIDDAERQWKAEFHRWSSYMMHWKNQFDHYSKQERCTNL
T1 sequence (P53341 whole entry): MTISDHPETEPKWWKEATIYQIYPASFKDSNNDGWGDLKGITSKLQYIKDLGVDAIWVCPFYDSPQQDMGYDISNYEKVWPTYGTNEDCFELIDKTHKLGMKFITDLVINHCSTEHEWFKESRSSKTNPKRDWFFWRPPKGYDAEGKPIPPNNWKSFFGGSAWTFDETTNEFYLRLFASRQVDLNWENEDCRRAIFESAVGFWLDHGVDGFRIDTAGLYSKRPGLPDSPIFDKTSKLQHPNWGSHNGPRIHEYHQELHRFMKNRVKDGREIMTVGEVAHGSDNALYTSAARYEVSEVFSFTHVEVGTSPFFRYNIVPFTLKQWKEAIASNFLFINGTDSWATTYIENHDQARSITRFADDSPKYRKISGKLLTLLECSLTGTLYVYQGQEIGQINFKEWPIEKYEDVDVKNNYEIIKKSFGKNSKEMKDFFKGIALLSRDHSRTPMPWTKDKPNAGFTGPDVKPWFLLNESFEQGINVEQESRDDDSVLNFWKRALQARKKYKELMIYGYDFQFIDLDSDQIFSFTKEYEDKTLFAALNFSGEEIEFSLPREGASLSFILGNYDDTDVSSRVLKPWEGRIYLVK

In the case of `CC(C)=CCC/C(C)=C/Cc1cc([C@@H]2CC(=O)c3c(O)cc(O)cc3O2)ccc1O` [GN, 3′-geranyl-naringenin], the IC50 [1] is reported as 5.4 µM, the IC50 [2] is reported as 24 µM and the IC50 [3] is reported as 1.02 µM. It also gave an IC50 [4] of 7 µM and an IC50 [5] of 12.3 µM.
Molecule `CC(C)=CCC/C(C)=C/Cc1cc(C2CC(=O)c3c(O)cc(O)cc3O2)cc(O)c1O` (centres unmarked) [INB, isonymphaeol-B] has an IC50 [1] of 5.12 µM, an IC50 [2] of 23.8 µM and an inhibition at 12 µM [6] of 3 to 5%. It also gave an IC50 [3] of 0.42 µM, an IC50 [4] of 6.2 µM and an IC50 [5] of 7.23 µM.
Work on `CC(C)=CCC/C(C)=C/Cc1c(O)cc2c(c1O)C(=O)C[C@@H](c1ccc(O)c(O)c1)O2` [NA, nymphaeol-A] yielded an IC50 [1] of 3.77 µM, an IC50 [2] of 11.7 µM and an IC50 [3] of 0.26 µM. It also gave an IC50 [4] of 3.2 µM and an IC50 [5] of 7.77 µM.
`CC(C)=CCC/C(C)=C/Cc1c([C@@H]2CC(=O)c3c(O)cc(O)cc3O2)ccc(O)c1O` [NB, nymphaeol-B] showed an IC50 [1] of 5.66 µM, an IC50 [2] of 17.9 µM and an inhibition at 12 µM [6] of 3 to 5%. It also gave an IC50 [3] of 0.54 µM, an IC50 [4] of 5.4 µM and an IC50 [5] of 15.1 µM.
`CC(C)=CCC/C(C)=C/Cc1c([C@@H]2CC(=O)c3c(cc(O)c(CC=C(C)C)c3O)O2)ccc(O)c1O` [NC, nymphaeol-C] gave an IC50 [1] of 4.09 µM, an IC50 [2] of 15.4 µM and an IC50 [3] of 0.37 µM. For the same molecule, the IC50 [4] was 2.4 µM and the IC50 [5] was 15.7 µM.
`O=C(c1ccccc1)c1ccc2n1CCC2C(=O)O` (centres unmarked) [ketorolac, reference compound] was tested, and the inhibition at 200 µM ([3]; at 200 µM) was 52% and the inhibition at 200 µM ([4]; RAW264.7, 200 μM, compared to cells treated only with LPS, read-out: Inhibition of nitrite formation in the supernatant) was 26%.
